71 compounds from publication doi:10.1101/2021.04.29.441652v1 (biorxiv, 2021) can be followed below.

SMILES strings stand for the structures.

The experiment deals with human σ2 receptor (TMEM97) (Homo sapiens, UniProt Q5BJF2). Put plainly: biochemical. In kind it is Expi293 membranes. Particulars: read-out: % of control remaining.
human σ2 receptor (TMEM97), sequence (Q5BJF2 whole entry): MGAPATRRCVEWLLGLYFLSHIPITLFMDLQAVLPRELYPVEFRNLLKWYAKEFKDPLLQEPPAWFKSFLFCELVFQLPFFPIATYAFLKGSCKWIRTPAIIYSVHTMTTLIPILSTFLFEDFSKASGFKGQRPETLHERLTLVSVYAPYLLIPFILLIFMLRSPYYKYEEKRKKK
`CC(C)N1C[C@H](NC(=O)N[C@@H](C)c2ccc(Br)s2)[C@@H](C)C1` [ZINC000436303801]: the remaining activity at 1 µM was determined as 75.3%.

Regarding `C[C@@H]1CCC[C@@H](NC(=O)CN2CCN(CC[C@@H]3CCOC3)CC2)C1` [ZINC000438095302], the remaining activity at 1 µM came out at 38.1%.

With `Cc1c(C(=O)NCC2CCCC2)cnc2c1c(=O)n(C)c(=O)n2C` [ZINC000438905691], the remaining activity at 1 µM turned out to be 105%.

In the case of `C[C@@H]1C[C@@H](c2ccccc2)CCN1Cc1nc(C2CC2)cs1` [ZINC000439311985], the remaining activity at 1 µM turned out to be 106%.

As for `CO[C@H](C)CS(=O)(=O)N1CCN(C(=O)C(=O)N2CCCC2)CC1` [ZINC000442921898], the remaining activity at 1 µM worked out at 111%.

On to `CCO[C@@H]1C[C@](CO)(NC[C@H](O)COC2CCOCC2)C1(C)C` [ZINC000444807044], for which the remaining activity at 1 µM turned out to be 120%.

Regarding `O[C@@H](CN[C@@H](c1ccc(Br)cc1Cl)C1CC1)CN1CCCC1` [ZINC000446751851], the remaining activity at 1 µM is 20.8%.

On to `CCC(CC)n1ccc(CN2CC=C(c3ccc(O)cc3)CC2)n1` [ZINC000448446275], for which the remaining activity at 1 µM turned out to be 38.7%.

Take `C[C@@H]1CCC[C@H](NC(=O)CN2CCN(CCC3=CCCCC3)CC2)C1` [ZINC000450551910]: the remaining activity at 1 µM worked out at 16%.

Consider `CS[C@@H]1CCN(C[C@@H](O)COC(c2ccc(F)cc2)c2ccc(F)cc2)C1` [ZINC000451319844], for which the remaining activity at 1 µM was 63%.

In the case of `O=C([C@@H]1C[C@H]1C(F)(F)F)N(CCN1CCCCCC1)C1CCC1` [ZINC000452023252], the remaining activity at 1 µM came out at 37.5%.

Consider `CC(C)N1CC[C@H](N(C)S(=O)(=O)C[C@H]2CCCCC2(F)F)C1` [ZINC000452100574], for which the remaining activity at 1 µM was found to be 73.3%.

In the case of `CC(C)N1CC[C@@H](N(C)S(=O)(=O)c2c(F)c(F)cc(F)c2F)C1` [ZINC000452107481], the remaining activity at 1 µM worked out at 36.9%.

Turning to `C[C@H](CCCc1cccnc1)N[C@@H](C)Cn1cccn1` [ZINC000453142034], the remaining activity at 1 µM amounted to 24.9%.

Take `C[C@@H](CC(N)=O)NC[C@H](CO)Cc1cc(Br)ccc1F` [ZINC000453336584]: the remaining activity at 1 µM amounted to 100%.

On to `COc1cccnc1CN[C@H](Cc1ccc(C)cc1)C1CC1` [ZINC000453351921], for which the remaining activity at 1 µM was found to be 69.2%.

For `Cc1ccc(C[C@H](CO)NCc2cccc(F)c2)cc1C` [ZINC000453607577], the remaining activity at 1 µM came to 86.8%.

Turning to `CN1CC[C@@H](CNC(=O)Nc2cc(F)ccc2Oc2ccccc2)C1` [ZINC000454705882], the remaining activity at 1 µM came to 87.6%.

On to `CCN(CC)[C@H]1CCN(CC(=O)N[C@@H](c2ccccc2)c2cccs2)C1` [ZINC000464767692], for which the remaining activity at 1 µM turned out to be 73.8%.

Regarding `CCN(CC)[C@H]1CCN(C(=O)NCCCc2cccc(Cl)c2)C1` [ZINC000465804078], the remaining activity at 1 µM worked out at 67.7%.

On to `C[C@@H]1CN(C2CC2)C[C@H]1NC(=O)N(Cc1cccc(Br)c1)C1CC1` [ZINC000466933503], for which the remaining activity at 1 µM was found to be 84.3%.

For `CC(C)CO[C@H]1CCN([C@@H](C)C(=O)N(C)Cc2ccc(Br)cc2)C1` [ZINC000468894194], the remaining activity at 1 µM is 35.4%.

Take `C[C@@H]1[C@H](Cc2ccccc2)CCN1Cc1cc(=O)n2cc(Cl)ccc2n1` [ZINC000472356611]: the remaining activity at 1 µM was determined as 45.9%.

Take `COc1ccnc(N2CCN([C@H](C)CCSc3ccccc3)CC2)n1` [ZINC000473272986]: the remaining activity at 1 µM is 66.5%.

`C[C@H](NC[C@H](CO)Cc1c(F)cccc1Cl)c1ccco1` [ZINC000483826940]: the remaining activity at 1 µM came out at 22.5%.

For `CCCCNC(=O)[C@H](C)N1CC[C@](C)(CNC(=O)OC(C)(C)C)C1` [ZINC000495656270], the remaining activity at 1 µM is 45.1%.

Take `CN(C[C@H](O)CN[C@@H]1C[C@H]2CCCCN2C1=O)C(=O)OC(C)(C)C` [ZINC000496403719]: the remaining activity at 1 µM came to 92.4%.

Turning to `C[C@]1(c2ccccc2)CCCN(CC(=O)N2CCc3ccccc32)C1` [ZINC000500192494], the remaining activity at 1 µM is 69.3%.

For `C[C@@H]1CCN(CC(=O)N(C)[C@@H](C)c2ccc(F)c(F)c2)C[C@@H]1C` [ZINC000501775665], the remaining activity at 1 µM turned out to be 20.4%.

With `COCCN1CCC(N[C@H]2COc3cc(F)c(Br)cc32)CC1` [ZINC000504552433], the remaining activity at 1 µM turned out to be 49.2%.

As for `CC[C@H]1CN(Cc2ccc(-c3ccccc3)cc2F)C[C@H]1O` [ZINC000507809396], the remaining activity at 1 µM amounted to 14%.

For the compound `Brc1ccccc1CNc1nccn1Cc1ccccc1` [ZINC000508455082], the remaining activity at 1 µM amounted to 69.3%.

Turning to `Cc1cccc(CNc2nccn2Cc2ccccc2)c1C` [ZINC000508475661], the remaining activity at 1 µM is 38.6%.

Regarding `C[C@H]1C[C@H](N2CCCC2)CN1CC(=O)N(Cc1ccccc1)c1ccccc1` [ZINC000512182007], the remaining activity at 1 µM was 31.6%.

With `Cc1ccccc1[C@@H]1CCN([C@H](C)C(=O)NCCc2ccccc2)C1` [ZINC000513818302], the remaining activity at 1 µM worked out at 89.1%.

With `Cc1cccc(NC(=O)N(C)C[C@H]2CCCN2C)c1C(=O)N1CCCC1` [ZINC000516964180], the remaining activity at 1 µM stood at 99.3%.

`NC(=O)[C@H](Cc1ccc(Cl)cc1)NCc1cc2ccccc2s1` [ZINC000517634594]: the remaining activity at 1 µM was determined as 98.7%.

For the compound `Cc1ccccc1[C@H](OC[C@H](O)CN1Cc2ccccc2C1)c1ccccc1` [ZINC000518003593], the remaining activity at 1 µM was determined as 79.8%.

For the compound `Cc1ccnc2nc(C(=O)N3CCN(CCN4CCCC4)CC3)nn12` [ZINC000518759550], the remaining activity at 1 µM was determined as 115%.

As for `COc1cc(Cl)c(C)cc1NC(=O)[C@H](C)N(C)Cc1sccc1C` [ZINC000520440291], the remaining activity at 1 µM stood at 102%.

With `O=C(Nc1cnc2ccccc2c1)[C@]1(O)CCN(Cc2ccccc2)C1` [ZINC000524392254], the remaining activity at 1 µM amounted to 93.9%.

`CC[C@@H]1CCC[C@H](NC(=O)[C@H](C)N2CCCCCC2)C1` [ZINC000525245955]: the remaining activity at 1 µM is 93.6%.

As to `Cc1cccc(C[C@H](CO)NCc2cnc(C3CCCCC3)s2)c1` [ZINC000526962900], the remaining activity at 1 µM is 60.7%.

On to `C[C@@H](N[C@H]1Cc2ccccc2NC1=O)[C@@H]1C[C@H]1c1ccc(Cl)s1` [ZINC000528002641], for which the remaining activity at 1 µM is 84%.

In the case of `O=C(NC[C@@H]1CNCCO1)N1CCN(S(=O)(=O)C2CC2)CC1` [ZINC000529344158], the remaining activity at 1 µM was 135%.

For the compound `C[C@@H](C(=O)Nc1cccc(C2CCCCC2)c1)N1CCN(C)CC1` [ZINC000529649527], the remaining activity at 1 µM worked out at 84.3%.

Consider `CC1(C)[C@H](NC(=O)[C@]2(O)CCN(Cc3ccccc3)C2)[C@@H]2CCCO[C@@H]21` [ZINC000531059007], for which the remaining activity at 1 µM is 87.5%.

On to `CC(=O)N1CCN(C(=O)C(=O)Nc2cnn(-c3ccccn3)c2)CC1` [ZINC000531495018], for which the remaining activity at 1 µM came to 99.3%.

Take `COC(=O)c1ccccc1NC(=O)CN1C[C@@H](c2ccccc2)C[C@@H]1C` [ZINC000532978237]: the remaining activity at 1 µM was found to be 119%.

`C[C@H](C(=O)Nc1ccc(F)cc1Cl)N1CC[C@H](N2CCCC2)C1` [ZINC000533411740]: the remaining activity at 1 µM is 79.7%.

Consider `Cc1cc(NC(=O)[C@H](C)N2CCC[C@@H]([C@H](C)O)C2)ccc1Br` [ZINC000534109220], for which the remaining activity at 1 µM stood at 70.4%.

As for `CCc1cc(N2CCC[C@@H](N[C@H](C)c3ccc(OC)c(Cl)c3)C2)ncn1` [ZINC000536865847], the remaining activity at 1 µM is 36.3%.

Consider `CCCC1CCC(CN2CCN(CC(=O)N(CC)CC)CC2)CC1` (centres unmarked) [ZINC000539406733], for which the remaining activity at 1 µM is 34%.

On to `C[C@@H](C(=O)NCc1ccccc1Cl)N1CC[C@H](n2ncc3ccccc32)C1` [ZINC000542825037], for which the remaining activity at 1 µM was 107%.

`COc1cccc2ncnc(N3CCN(CC4CCOCC4)CC3)c12` [ZINC000543048256]: the remaining activity at 1 µM was determined as 109%.

Regarding `FC(F)(F)c1cccc([C@@]2(F)CCN(C[C@@H]3CCSC3)C2)c1` [ZINC000549824186], the remaining activity at 1 µM is 20%.

For the compound `Cc1nc(CN2CC[C@H](CC3CC3)C2)nc2ccccc12` [ZINC000550423124], the remaining activity at 1 µM was determined as 43.5%.

Take `Cn1nccc1[C@@H]1CCC[C@@H](N[C@H]2CC3CCC2CC3)C1` [ZINC000550829396]: the remaining activity at 1 µM was found to be 19.6%.

For `CN1CCN(CCCCNC(=O)C(=O)N2CCSCC2)CC1` [ZINC000555574173], the remaining activity at 1 µM was determined as 107%.

Turning to `CC(C)OCCN1CCC(NC(=O)[C@@H]2CCc3nncn3C2)CC1` [ZINC000556484619], the remaining activity at 1 µM was 112%.

On to `CN1CC[C@](O)(CN[C@@H](c2sccc2Br)C2CCCCC2)C1` [ZINC000556573026], for which the remaining activity at 1 µM came to 16.7%.

As to `CN1CCN(C(=O)C(=O)N2CCCN(C3CCCC3)CC2)CC1=O` [ZINC000556797005], the remaining activity at 1 µM is 79.9%.

With `COCCN1CCC[C@@H]1CNC(=O)C(=O)N1CCC[C@@H](C(C)C)CC1` [ZINC000557493019], the remaining activity at 1 µM was determined as 113%.

For the compound `CC1CCC(CNC(=O)C(=O)NC2CCN([C@@H]3CCC[C@@H]3O)CC2)CC1` (some centres unmarked) [ZINC000564110976], the remaining activity at 1 µM turned out to be 78.2%.

`Cc1csc2nc(CN[C@H]3C[C@H](OCc4ccccc4)C3(C)C)cc(=O)n12` [ZINC000567338231]: the remaining activity at 1 µM was 34.7%.

Regarding `C[C@H](C(=O)NCc1ccc(Cl)cc1)N1CC[C@@H](c2cccnc2)C1` [ZINC000571080072], the remaining activity at 1 µM was determined as 64%.

With `CCc1ccc([C@@H](C)N[C@@H]2CCCN(C(=O)CCC(F)(F)F)C2)s1` [ZINC000574285278], the remaining activity at 1 µM amounted to 76.2%.

As for `C[C@@H]1C[C@H](NC(=O)C(=O)N(C)Cc2c(Cl)cccc2Cl)CN1C1CC1` [ZINC000574318236], the remaining activity at 1 µM is 100%.

`CCc1nc2cc(CN[C@@H](C)CC(=O)N3CCCCCC3)ccc2n1C1CC1` [ZINC000574654702]: the remaining activity at 1 µM amounted to 48.4%.

`Cc1ccc2c(c1)[C@H](NC(=O)NC[C@@H]1CCN(C(C)C)C1)CCC2` [ZINC000575186982]: the remaining activity at 1 µM was 22.9%.

Take `C[C@H](NC1CC1)C(=O)NCc1ccc(C(=O)N=c2cc[nH]cc2)cc1` [ZINC000576277949]: the remaining activity at 1 µM stood at 67.2%.
